According to US20250304551A1 (SHANGHAI APEIRON THERAPEUTICS COMPANY LIMITED, priority 2022, published 2025):

Assays:
[1] = target: T1, Human KIF18A (amino acid sequence 1-417) (Homo sapiens, UniProt Q8NI77); experiment: Enzyme activity detection experiment (ADP-Glo, KIF18A with tubulin and ATP); type: biochemical; details: tubulin 60 μg/mL, ATP 25 μM, KIF18A protein 2.5 nM, 120 minutes at ambient temperature, ADP-Glo chemiluminescence
T1 construct: purchased Viva Biotech (Shanghai) Ltd
Procedure: Materials: Human KIF18A (amino acid sequence 1-417) was obtained from Viva Biotech (Shanghai) Ltd., and the ADP-Glo™ protein kinase kit was acquired from Promega, USA. Tubulin was sourced from Cytoskeleton, USA, while a 384-well assay plate and the Envision multifunctional microplate reader were obtained from PerkinElmer, USA.
Enzyme activity detection: The compound powder in DMSO was firstly dissolved to prepare a 10 mM stock solution. Next, gradient dilutions were prepared in the microplate to achieve final concentrations of […]. Sequentially, 2.5 μL of tubulin (60 μg/mL), the compound, ATP (25 μM), and KIF18A protein (2.5 nM) were added to each well, and the reaction was incubated at ambient temperature for 120 minutes. After the reaction, 10 μL of ADP-Glo™ reagent was added to each well and incubated at ambient temperature for 30 minutes. Subsequently, 20 μL of detection reagent was added to each well and incubated for an additional 30 minutes in the dark. Finally, chemiluminescence detection was performed using the PerkinElmer Envision multifunctional microplate reader.

[2] = test system: OVCAR3 cells; experiment: Cell proliferation activity test, OVCAR3 (CyQUANT Direct); type: cell-based; details: Homo sapiens, OVCAR-3, 72 h, 3 days incubation, CyQUANT fluorescence detection, read-out: OVCAR-3 Cell Viability_IC50_nM
Procedure: Materials and Cells: OVCAR3 cells were purchased from Nanjing Cobioer Biosciences Co., Ltd. RPMI-1640 medium, fetal bovine serum, and the CyQUANT Direct Cell Proliferation Assay kit were purchased from Thermo Fisher Scientific, USA; 96-well cell culture plates were sourced from Corning, USA.
Cell Culture: Culture OVCAR3 cells with RPMI-1640 medium containing […] and incubate them in a […] incubator at 37° C. Only cells in the logarithmic growth phase can be used for the test.
Inoculate OVCAR3 cells into a 96-well cell culture plate at 90 μL per well and incubate overnight in a […] incubator at 37° C. Dissolve the compound powder in DMSO to prepare a stock solution of 10 mM. Then perform gradient dilution for the compounds in the microplate to achieve a final concentration of 0-10 μM. Add 10 μL of cell culture medium containing compounds to each well to make the final DMSO content 0.20%. Incubate the cell plates in a […] incubator at 37° C. for 3 days. Add 100 μL of CyQUANT detection reagent to each well, react at 37° C. for 60 min, and perform fluorescence detection using the PerkinElmer Envision.

[3] = test system: HT29 cells; experiment: CyQuant cell proliferation activity test, HT29; type: cell-based; details: Homo sapiens, HT-29, 72 h, HT29 2000 cells per well, 3 days incubation, initial concentration 3000 nM, IC50 by XLFIT, read-out: HT-29 Cell Viability_IC50_nM
Procedure: Materials and Cells: HT29 cells were purchased from Nanjing Cobioer Biosciences Co., Ltd.; RPM-1640 medium, fetal bovine serum, Trypsin-EDTA (0.25%), DMSO, 96-well plates, and CyQuant reagents were purchased from ThermoFisher (USA).
Cell Culture: Culture HT29 cells with RPMI-1640 containing 10% fetal bovine serum under the condition of 37° C. and 5% CO2. Only cells in the logarithmic growth phase can be used for the test.
Cell Proliferation Activity Test: Use the CyQuant reagent to detect the proliferation inhibitory activity of compounds on HT29 cells. Adjust the cell density and inoculate 100 μL per well into the 96-well plate (HT29 at 2000 cells per well), then incubate overnight under the condition of 37° C. and […]. Add compounds of various target concentrations (initial concentration of 3000 nM, 3-fold dilution, 9 concentration gradients), and make the DMSO content 0.20%. Incubate the cell plates at 37° C. and 5% CO2 for 3 days. Incubate with CyQuant reagent for 1 h, read the plate by Envision, and calculate IC50 using XLFIT.

T1 sequence (Q8NI77 1-417): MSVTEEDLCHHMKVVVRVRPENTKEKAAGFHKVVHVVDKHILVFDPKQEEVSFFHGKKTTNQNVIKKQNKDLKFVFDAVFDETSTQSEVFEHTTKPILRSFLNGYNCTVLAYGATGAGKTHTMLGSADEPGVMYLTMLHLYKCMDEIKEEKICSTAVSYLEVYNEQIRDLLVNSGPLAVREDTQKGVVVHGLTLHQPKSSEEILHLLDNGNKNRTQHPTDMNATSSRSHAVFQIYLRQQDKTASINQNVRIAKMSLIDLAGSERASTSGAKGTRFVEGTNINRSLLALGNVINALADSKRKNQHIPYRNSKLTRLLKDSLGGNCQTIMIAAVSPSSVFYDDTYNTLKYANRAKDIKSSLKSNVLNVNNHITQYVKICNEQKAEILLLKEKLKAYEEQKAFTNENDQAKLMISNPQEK
T1 sequence (Q2XVP4 whole entry partner): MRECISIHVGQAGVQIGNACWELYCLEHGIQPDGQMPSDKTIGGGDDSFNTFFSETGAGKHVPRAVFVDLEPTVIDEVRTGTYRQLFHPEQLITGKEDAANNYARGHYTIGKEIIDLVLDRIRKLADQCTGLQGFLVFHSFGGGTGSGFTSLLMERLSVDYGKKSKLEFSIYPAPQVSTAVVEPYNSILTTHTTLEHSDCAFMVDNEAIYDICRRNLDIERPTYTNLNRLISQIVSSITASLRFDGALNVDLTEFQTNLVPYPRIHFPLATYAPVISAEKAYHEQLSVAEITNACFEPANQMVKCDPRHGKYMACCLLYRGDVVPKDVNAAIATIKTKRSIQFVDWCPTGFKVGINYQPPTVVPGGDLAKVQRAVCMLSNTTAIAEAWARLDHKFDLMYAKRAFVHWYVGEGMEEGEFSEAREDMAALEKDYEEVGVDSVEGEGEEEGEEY
T1 sequence (P02554 whole entry partner): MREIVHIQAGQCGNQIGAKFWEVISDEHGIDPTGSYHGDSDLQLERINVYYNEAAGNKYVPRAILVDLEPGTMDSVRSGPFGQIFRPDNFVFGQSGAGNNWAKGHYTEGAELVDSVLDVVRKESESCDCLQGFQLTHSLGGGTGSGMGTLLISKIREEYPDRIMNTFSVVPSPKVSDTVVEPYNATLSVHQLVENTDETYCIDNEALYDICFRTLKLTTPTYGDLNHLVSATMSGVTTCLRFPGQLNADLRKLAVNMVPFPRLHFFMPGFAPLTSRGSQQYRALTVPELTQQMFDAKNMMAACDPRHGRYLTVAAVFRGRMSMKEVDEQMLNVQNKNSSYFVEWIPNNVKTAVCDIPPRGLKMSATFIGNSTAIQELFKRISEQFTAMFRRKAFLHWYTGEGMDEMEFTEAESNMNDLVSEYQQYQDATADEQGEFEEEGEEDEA

Compound | IC50 [1] [nM] | IC50 [2] [nM] | IC50 [3] [nM]
Nc1nc2c(N3CCC(F)(F)CC3)c(F)c(-c3cn(-c4ccc(NS(=O)(=O)CCO)cc4N4CCC5(CC4)CC5)nn3)cc2s1 [Example 81, N-(4-{4-[2-amino-4-(4,4-difluoropiperidin-1-yl)-5-fluoro-1,3-benzothiazol-6-yl]-1H-1,2,3-triazol-1-yl}-3-{6-azaspiro[2.5]octan-6-yl}phenyl)-2-hydroxyethane-1-sulfonamide] | 710 | 20 | 30
O=S(=O)(CCO)Nc1ccc(-c2nnc(-c3cc(O)nc(N4CCC(F)(F)CC4)n3)o2)c(N2CCC3(CC2)CC3)c1 [Example 21, N-(4-(5-(2-(4,4-difluoropiperidin-1-yl)-6-hydroxypyrimidin-4-yl)-1,3,4-oxadiazol-2-yl)-3-(6-azaspiro[2.5]octan-6-yl)phenyl)-2-hydroxyethane-1-sulfonamide] | 67 | 1620 | > 3000
CC(C)(O)c1ccc(-c2cn(-c3ccc(NS(=O)(=O)CCO)cc3N3CCC4(CC3)CC4)nn2)nc1N1CCC(F)(F)CC1 [Example 70, N-(4-(4-(6-(4,4-difluoropiperidin-1-yl)-5-(2-hydroxypropan-2-yl)pyridin-2-yl)-1H-1,2,3-triazol-1-yl)-3-(6-azaspiro[2.5]octan-6-yl)phenyl)-2-hydroxyethanesulfonamide] | 1230 | 582 | 700
COc1cc(-c2cn(-c3ccc(NS(=O)(=O)CCO)cc3N3CCC4(CC3)CC4)nn2)nc(N2[C@H](C)COC[C@@H]2C)n1 [Example 53, N-(4-(4-(2-((3S,5R)-3,5-dimethylmorpholino)-6-methoxypyrimidin-4-yl)-1H-1,2,3-triazol-1-yl)-3-(6-azaspiro[2.5]octan-6-yl)phenyl)-2-hydroxyethane-1-sulfonamide] | 296 | 35 | 47
Cc1cc(-c2cn(-c3ccc(NS(=O)(=O)CCO)nc3N3CCC4(CC3)CC4)nn2)nc(N2CCC(F)(F)CC2)n1 [Example 66, N-(6-{6-azaspiro[2.5]octan-6-yl}-5-{4-[2-(4,4-difluoropiperidin-1-yl)-6-methylpyrimidin-4-yl]-1H-1,2,3-triazol-1-yl}pyridin-2-yl)-2-hydroxyethane-1-sulfonamide] | 62 | 52.7 | 54
COc1cc(-c2cn(-c3ccc(NS(=O)(=O)CCO)cc3N3CCC4(CC3)CC4)cn2)nc(N2CCC(F)(F)CC2)n1 [Example 11, N-(4-(4-(2-(4,4-difluoropiperidin-1-yl)-6-methoxypyrimidin-4-yl)-1H-imidazol-1-yl)-3-(6-azaspiro[2.5]octan-6-yl)phenyl)-2-hydroxyethane-1-sulfonamide] | 252 | 164 | 319
O=S(=O)(CCO)Nc1ccc(-n2cc(-c3ccc(-c4cccnc4)c(N4CCC(F)(F)CC4)n3)nn2)c(N2CCC3(CC2)CC3)c1 [Example 82, N-(3-{6-azaspiro[2.5]octan-6-yl}-4-{4-[2-(4,4-difluoropiperidin-1-yl)-[3,3′-bipyridyl]-6-yl]-1H-1,2,3-triazol-1-yl}phenyl)-2-hydroxyethane-1-sulfonamide] | 283 | 15 | 23
Cc1cc(-c2cn(-c3ccc(NS(=O)(=O)CCO)cc3N3CCC4(CC3)CC4)nn2)nc(N2[C@H](C)CC(F)(F)C[C@@H]2C)n1 [Example 50, N-(4-(4-(2-((2S,6R)-4,4-difluoro-2,6-dimethylpiperidin-1-yl)-6-methylpyrimidin-4-yl)-1H-1,2,3-triazol-1-yl)-3-(6-azaspiro[2.5]octan-6-yl)phenyl)-2-hydroxyethane-1-sulfonamide] | 1050 | 222 | 245
O=S(=O)(CCO)Nc1ccc(-n2cc(-c3cc(N4CCC(F)(F)CC4)c4nnccc4c3)nn2)c(N2CCC3(CC2)CC3)c1 [Example 76, N-(4-(4-(8-(4,4-difluoropiperidin-1-yl)cinnolin-6-yl)-1H-1,2,3-triazol-1-yl)-3-(6-azaspiro[2.5]octan-6-yl)phenyl)-2-hydroxyethane-1-sulfonamide] | 75 | 12 | 16
Cc1cc(-c2cn(-c3ccc(NS(=O)(=O)CCO)cc3N3CCC(=C(F)F)CC3)nn2)nc(N2CCC(F)(F)CC2)n1 [Example 88, N-{3-[4-(difluoromethylidene)piperidin-1-yl]-4-{4-[2-(4,4-difluoropiperidin-1-yl)-6-methylpyrimidin-4-yl]-1H-1,2,3-triazol-1-yl}phenyl}-2-hydroxyethane-1-sulfonamide] | 118 | 29 | 52
Cc1cc(-c2nnc(-c3ccc(NS(=O)(=O)CCO)cc3N3CCC4(CC3)CC4)o2)nc(N2CCC(C)(O)CC2)n1 [Example 19, 2-hydroxy-N-(4-(5-(2-(4-hydroxy-4-methylpiperidin-1-yl)-6-methylpyrimidin-4-yl)-1,3,4-oxadiazol-2-yl)-3-(6-azaspiro[2.5]octan-6-yl)phenyl)ethane-1-sulfonamide] | 630 | 1400 | > 3000
O=S(=O)(CCO)Nc1ccc(-c2nnc(-c3cc4ccoc4c(N4CCC(F)(F)CC4)n3)o2)c(N2CCC3(CC2)CC3)c1 [Example 33] | 61 | 34 | 65
Cc1cc(-c2cn(-c3ccc(NS(=O)(=O)CCO)cc3N3CCC4(CC3)CC4)nn2)nc(N2CCO[C@@H](C)C2)n1 [Example 43, (S)-2-hydroxy-N-(4-(4-(6-methyl-2-(2-methylmorpholino)pyrimidin-4-yl)-1H-1,2,3-triazol-1-yl)-3-(6-azaspiro[2.5]octan-6-yl)phenyl)ethane-1-sulfonamide] | 44 | 16 | 18
Cc1cc(-c2cn(-c3cnc(NS(=O)(=O)CCO)cc3N3CCC4(CC3)CC4)nn2)cc(N2CCC(F)(F)CC2)n1 [Example 68, N-(4-{6-azaspiro[2.5]octan-6-yl}-5-{4-[2-(4,4-difluoropiperidin-1-yl)-6-methylpyridin-4-yl]-1H-1,2,3-triazol-1-yl}pyridin-2-yl)-2-hydroxyethane-1-sulfonamide] | 112 | 159 | 250
Cc1cc(-c2cn(-c3ccc(NS(=O)(=O)[C@@H](C)CO)cc3N3CCC4(CC3)CC4)nn2)nc(N2CCC(F)(F)CC2)n1 [Example 84, (2S)—N-(3-{6-azaspiro[2.5]octan-6-yl}-4-{4-[2-(4,4-difluoropiperidin-1-yl)-6-methylpyrimidin-4-yl]-1H-1,2,3-triazol-1-yl}phenyl)-1-hydroxypropane-2-sulfonamide] | 125 | 21 | 25
Cc1cc(-c2cn(-c3ccc(NS(=O)(=O)CCO)cc3N3CCC4(CC3)CC4)nn2)nc(N2C3COCC2C3)n1 [Example 49, N-(4-(4-(2-(3-oxa-6-azabicyclo[3.1.1]heptan-6-yl)-6-methylpyrimidin-4-yl)-1H-1,2,3-triazol-1-yl)-3-(6-azaspiro[2.5]octan-6-yl)phenyl)-2-hydroxyethane-1-sulfonamide] | 61 | 54 | 31
Cc1cc(-c2cn(-c3ccc(NS(=O)(=O)C(C)(C)CO)cc3N3CCC4(CC3)CC4)nn2)nc(N2CCC(F)(F)CC2)n1 [Example 86, N-(3-{6-azaspiro[2.5]octan-6-yl}-4-{4-[2-(4,4-difluoropiperidin-1-yl)-6-methylpyrimidin-4-yl]-1H-1,2,3-triazol-1-yl}phenyl)-1-hydroxy-2-methylpropane-2-sulfonamide] | 162 | 22 | 21
